Tests used:
[1] = target: T1, human VDR (Homo sapiens, UniProt P11473); assay: Evaluation of VDR transcription activity in human osteoblasts (HOS cells), luciferase reporter; conditions: Activity (EC50, VDR transcription activity), HOS cells transfected with human VDR, human RXRα and DR3 luciferase reporter; 21 hours
T1 sequence (P11473 1-427): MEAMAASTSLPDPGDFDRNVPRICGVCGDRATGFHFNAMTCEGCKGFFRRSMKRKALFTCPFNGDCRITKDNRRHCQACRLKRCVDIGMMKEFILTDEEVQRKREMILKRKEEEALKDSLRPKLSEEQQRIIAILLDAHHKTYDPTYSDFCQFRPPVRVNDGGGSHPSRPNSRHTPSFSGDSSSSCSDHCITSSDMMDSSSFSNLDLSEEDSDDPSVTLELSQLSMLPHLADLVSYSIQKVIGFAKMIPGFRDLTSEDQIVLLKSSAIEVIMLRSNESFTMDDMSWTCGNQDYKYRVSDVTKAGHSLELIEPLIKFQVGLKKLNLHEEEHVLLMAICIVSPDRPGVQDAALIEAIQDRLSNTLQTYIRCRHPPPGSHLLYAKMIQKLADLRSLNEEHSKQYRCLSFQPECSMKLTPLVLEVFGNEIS
T1 sequence (P19793 1-462 partner): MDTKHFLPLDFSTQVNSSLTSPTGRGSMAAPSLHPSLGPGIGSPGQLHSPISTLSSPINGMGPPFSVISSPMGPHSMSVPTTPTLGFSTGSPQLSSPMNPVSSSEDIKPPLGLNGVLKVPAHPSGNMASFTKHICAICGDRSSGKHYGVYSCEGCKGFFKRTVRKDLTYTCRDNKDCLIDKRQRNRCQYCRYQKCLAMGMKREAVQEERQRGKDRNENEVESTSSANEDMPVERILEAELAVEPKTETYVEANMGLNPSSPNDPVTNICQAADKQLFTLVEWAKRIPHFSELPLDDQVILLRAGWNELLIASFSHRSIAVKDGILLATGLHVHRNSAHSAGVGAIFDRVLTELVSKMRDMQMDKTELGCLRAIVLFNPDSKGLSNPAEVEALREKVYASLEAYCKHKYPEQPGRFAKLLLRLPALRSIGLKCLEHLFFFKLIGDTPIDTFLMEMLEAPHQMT

[2] = Evaluation of brain penetration in mice (blood and brain concentration at brain Cmax); assay type: in vivo, mouse; conditions: 1 mg/kg single oral dose, C57BL/6J mice; for Concentration in blood (mean ± SD) at brain Cmax / Concentration in brain (mean ± SD) at brain Cmax: n=3; for Kp: male, C57BL/6J, mouse, brain/plasma, po, 1 mg/kg, read-out: Concentration in brain/in blood ratio at brain Cmax
Procedure: The administration solution was administered orally to C57BL/6J mice (8 weeks old, male, n=3) at a single dose (1 mg/kg). Mice were euthanized at 6 points of 0.25, 0.5, 1, 2, 4, and 8 hours after administration, and plasma and brain sampling were performed. After preparing a homogenate from the collected brain using Tissue Lyser II (QIAGEN #85300), acetonitrile was added to the homogenate and the homogenate was centrifuged (12000 rpm, 5 minutes) to extract the administered test compound contained in the brain. Similarly, the plasma was subjected to addition of acetonitrile and centrifugal separation to extract the administered test compound contained in the plasma. Each extracted sample was subjected to measurement of the concentration of administered test compound using LC/MS/MS (SHIMADZU UFLC/MS/MS (8050)).
Test 2 [0.2 mg/kg Administration Study] […] The administration solution was administered orally to C57BL/6J mice (8 weeks old, male, n=3) at a single dose (0.2 mg/kg). Mice were euthanized at 6 points of 0.25, 0.5, 1, 2, 4, and 8 hours after administration, and plasma and brain sampling were performed. After preparing a homogenate from the collected brain using Tissue Lyser II (QIAGEN #85300), acetonitrile was added to the homogenate and the homogenate was centrifuged (12000 rpm, 5 minutes) to extract the administered compound contained in the brain. Similarly, the plasma was subjected to addition of acetonitrile and centrifugal separation to extract the administered test compound contained in the plasma. Each extracted sample was subjected to measurement of the concentration of administered test compound using LC/MS/MS (SHIMADZU UFLC/MS/MS (8050)).

[3] = test system: rat oligodendrocyte progenitor cells; assay: Promotive activity of rat oligodendrocyte progenitor cell differentiation-2 (immunostaining of MBP); assay type: cell-based; conditions: vitamin D derivative 2 μM, T3 30 nM, 4 days
Procedure: The promotive activity of oligodendrocyte progenitor cell (OPC) differentiation of the vitamin D derivatives was evaluated by immunostaining of MBP.
Subsequently, oligodendrocyte progenitor cell separation medium was added to the flask, and the mixture was similarly shaken for about 22 hours (37° C., 200 rpm), and the supernatant was collected to prepare oligodendrocyte progenitor cells.

C=C1[C@H](O)CC(=C/C=C2\CCC[C@]3(C)[C@@H]([C@H](C)CN4CCCC(O)(C(F)F)C4)CC[C@@H]23)C[C@H]1O (single isomer, unassigned) [Compound C036a]
EC50 [1]: < 1 nM | Concentration in blood (mean ± SD) at brain Cmax [2]: 849 ± 40 nM | Concentration in brain (mean ± SD) at brain Cmax [2]: 566 ± 89 pmol/g | Kp [2]: 0.67 | Mean (number of MBP-positive cells/number of Hoechst33342-positive cells) ([3]; Test 2): 0.53

C[C@H](CN1CC[C@@H](OCC(F)F)C1)[C@H]1CC[C@H]2/C(=C/C=C3C[C@@H](O)C[C@H](O)C3)CCC[C@]12C [Compound B058, (1R,3R)-5-(2-((1R,3aS,7aR,E)-1-((S)-1-((R)-3-(2,2-difluoroethoxy)pyrrolidin-1-yl)propan-2-yl)-7a-methyloctahydro-4H-inden-4-ylidene)ethylidene)cyclohexane-1,3-diol]
Concentration in blood (mean ± SD) at brain Cmax [2]: 78 ± 15 nM | Concentration in brain (mean ± SD) at brain Cmax [2]: 67 ± 9 pmol/g | Kp [2]: 0.86 | Mean (number of MBP-positive cells/number of Hoechst33342-positive cells) ([3]; Test 2): 0.49

C=C1[C@H](O)CC(=C/C=C2\CCC[C@]3(C)[C@@H]([C@H](C)CN4CCN(C)C[C@@H]4C)CC[C@@H]23)C[C@H]1O [Compound H011, (1R,3R)-5-(2-((1R,3aS,7aR,E)-1-((S)-1-((S)-2,4-dimethylpiperazin-1-yl)propan-2-yl)-7a-methyloctahydro-4H-inden-4-ylidene)ethylidene)-2-methylenecyclohexane-1,3-diol]
Mean (number of MBP-positive cells/number of Hoechst33342-positive cells) ([3]; Test 5): 0.30

C=C1[C@H](O)CC(=C/C=C2\CCC[C@]3(C)[C@@H]([C@H](C)CN4CCN(C)C[C@H]4C)CC[C@@H]23)C[C@H]1O [Compound H012, (1R,3R)-5-(2-((1R,3aS,7aR,E)-1-((S)-1-((R)-2,4-dimethylpiperazin-1-yl)propan-2-yl)-7a-methyloctahydro-4H-inden-4-ylidene)ethylidene)-2-methylenecyclohexane-1,3-diol]
Mean (number of MBP-positive cells/number of Hoechst33342-positive cells) ([3]; Test 7): 0.28

C=C1[C@H](O)CC(=C/C=C2\CCC[C@]3(C)[C@@H]([C@H](C)CN4CCC[C@@H]4C(C)(C)O)CC[C@@H]23)C[C@H]1O [Compound H013, (1R,3R)-5-(2-((1R,3aS,7aR,E)-1-((S)-1-((R)-2-(2-hydroxypropan-2-yl)pyrrolidin-1-yl)propan-2-yl)-7a-methyloctahydro-4H-inden-4-ylidene)ethylidene)-2-methylenecyclohexane-1,3-diol]
Mean (number of MBP-positive cells/number of Hoechst33342-positive cells) ([3]; Test 8): 0.35

C=C1[C@H](O)CC(=C/C=C2\CCC[C@]3(C)[C@@H]([C@H](C)CN4CCC[C@H]4C(C)(C)O)CC[C@@H]23)C[C@H]1O [Compound H014, (1R,3R)-5-(2-((1R,3aS,7aR,E)-1-((S)-1-((S)-2-(2-hydroxypropan-2-yl)pyrrolidin-1-yl)propan-2-yl)-7a-methyloctahydro-4H-inden-4-ylidene)ethylidene)-2-methylenecyclohexane-1,3-diol]
Mean (number of MBP-positive cells/number of Hoechst33342-positive cells) ([3]; Test 8): 0.37

C=C1[C@H](O)CC(=C/C=C2\CCC[C@]3(C)[C@@H]([C@H](C)CN4CCC[C@@H]4C(C)(C)OC)CC[C@@H]23)C[C@H]1O [Compound H015, (1R,3R)-5-(2-((1R,3aS,7aR,E)-1-((S)-1-((R)-2-(2-methoxypropan-2-yl)pyrrolidin-1-yl)propan-2-yl)-7a-methyloctahydro-4H-inden-4-ylidene)ethylidene)-2-methylenecyclohexane-1,3-diol]
Mean (number of MBP-positive cells/number of Hoechst33342-positive cells) ([3]; Test 8): 0.34

C=C1[C@H](O)CC(=C/C=C2\CCC[C@]3(C)[C@@H]([C@H](C)CN4CCC[C@H]4C(C)(C)OC)CC[C@@H]23)C[C@H]1O [Compound H016, (1R,3R)-5-(2-((1R,3aS,7aR,E)-1-((S)-1-((S)-2-(2-methoxypropan-2-yl)pyrrolidin-1-yl)propan-2-yl)-7a-methyloctahydro-4H-inden-4-ylidene)ethylidene)-2-methylenecyclohexane-1,3-diol]
Mean (number of MBP-positive cells/number of Hoechst33342-positive cells) ([3]; Test 8): 0.30

C=C1/C(=C\C=C2/CCC[C@]3(C)[C@@H]([C@H](C)CN4CCCC[C@@H]4C)CC[C@@H]23)C[C@@H](O)C[C@H]1O [Compound I001, (1R,3R,Z)-5-(2-((1R,3aS,7aR,E)-7a-methyl-1-((S)-1-((S)-2-methylpiperidin-1-yl)propan-2-yl)octahydro-4H-inden-4-ylidene)ethylidene)-4-methylenecyclohexane-1,3-diol]
Mean (number of MBP-positive cells/number of Hoechst33342-positive cells) ([3]; Test 9): 0.30

C=C1/C(=C\C=C2/CCC[C@]3(C)[C@@H]([C@H](C)CN4CCCC[C@H]4C)CC[C@@H]23)C[C@@H](O)C[C@H]1O [Compound I002, (1R,3R,Z)-5-(2-((1R,3aS,7aR,E)-7a-methyl-1-((S)-1-((R)-2-methylpiperidin-1-yl)propan-2-yl)octahydro-4H-inden-4-ylidene)ethylidene)-4-methylenecyclohexane-1,3-diol]
Mean (number of MBP-positive cells/number of Hoechst33342-positive cells) ([3]; Test 9): 0.31

C=C1/C(=C\C=C2/CCC[C@]3(C)[C@@H]([C@H](C)CN4CCCCC4(C)C)CC[C@@H]23)C[C@@H](O)C[C@H]1O [Compound I003, (1R,3R,Z)-5-(2-((1R,3aS,7aR,E)-1-((S)-1-(2,2-dimethylpiperidin-1-yl)propan-2-yl)-7a-methyloctahydro-4H-inden-4-ylidene)ethylidene)-4-methylenecyclohexane-1,3-diol]
Mean (number of MBP-positive cells/number of Hoechst33342-positive cells) ([3]; Test 9): 0.33

C=C1/C(=C\C=C2/CCC[C@]3(C)[C@@H]([C@H](C)CN4CCOC[C@@H]4C)CC[C@@H]23)C[C@@H](O)C[C@H]1O [Compound I004, (1R,3R,Z)-5-(2-((1R,3aS,7aR,E)-7a-methyl-1-((S)-1-((S)-3-methylmorpholino)propan-2-yl)octahydro-4H-inden-4-ylidene)ethylidene)-4-methylenecyclohexane-1,3-diol]
Mean (number of MBP-positive cells/number of Hoechst33342-positive cells) ([3]; Test 4): 0.44

C=C1/C(=C\C=C2/CCC[C@]3(C)[C@@H]([C@H](C)CN4CCOC[C@H]4C)CC[C@@H]23)C[C@@H](O)C[C@H]1O [Compound I005, (1R,3R,Z)-5-(2-((1R,3aS,7aR,E)-7a-methyl-1-((S)-1-((R)-3-methylmorpholino)propan-2-yl)octahydro-4H-inden-4-ylidene)ethylidene)-4-methylenecyclohexane-1,3-diol]
Mean (number of MBP-positive cells/number of Hoechst33342-positive cells) ([3]; Test 4): 0.43

C=C1/C(=C\C=C2/CCC[C@]3(C)[C@@H]([C@H](C)CN4CCOCC4(C)C)CC[C@@H]23)C[C@@H](O)C[C@H]1O [Compound I006, (1R,3R,Z)-5-(2-((1R,3aS,7aR,E)-1-((S)-1-(3,3-dimethylmorpholino)propan-2-yl)-7a-methyloctahydro-4H-inden-4-ylidene)ethylidene)-4-methylenecyclohexane-1,3-diol]
Mean (number of MBP-positive cells/number of Hoechst33342-positive cells) ([3]; Test 4): 0.51

Reference: patent US20230348376A1 (TEIJIN PHARMA LIMITED, priority 2020, published 2023)
